Reference: patent publication US8900591B2, “Vaccines comprising mutant GPCRs with increased conformational stability relative to parent receptors” (Heptares Therapeutics Limited, priority 2010, dated 2014)

Legend:
[1] = test system: endogenous β1AR in untransfected HEK293s; assay: CRE-luc reporter assay on untransfected HEK293 cells; type: cell-based, human; conditions: 1 μM forskolin, non-transfected cells
Source text: One read-out that can be employed to assess the functional activity of the resulting sera is the impact on cAMP signalling. The CRE-luc reporter assay was employed where the CRE response from activation of AC-cAMP-PKA pathway is the read-out.
The first interim bleeds were initially evaluated only on transfected cells to assess if any functional response could be observed at this stage of immunisation. […].

[2] = test system: 5-HT2A, 5-HT2B and 5-HT2C serotonin receptors; conditions: cited from earlier work

Row | SMILES | CRE-luc response to forskolin stimulation [1] | potency for 5-HT2C receptors relative to 5-HT2A [2] | selectivity for 5-HT2A over 5-HT2B [2]
1 | C=C[C@@]1(C)CC(=O)[C@]2(O)[C@@]3(C)[C@@H](O)CCC(C)(C)[C@@H]3[C@H](O)[C@H](OC(C)=O)[C@@]2(C)O1 [forskolin] | ~20,000 RLU |  | 
2 | C[C@@H](N)Cc1c2ccoc2c(Br)c2ccoc12 [Bromo-DragonFLY] |  | twice as potent | less than 5 ×
